We go through 70 molecules from ChEMBL document CHEMBL1151820, “Antagonists of the P2X(7) receptor. From lead identification to drug development” (J Med Chem, 2009).

Some results are limits rather than exact numbers.

The term IC50 denotes the concentration that gives 50% inhibition. Usually pIC50 stands for the IC50 on a negative log10 scale, so that one unit is a factor of ten. In general, inhibition refers to the percentage by which the read-out fell short of the control.

One test has as its target T1, P2X purinoceptor 7 (Homo sapiens, UniProt Q99572).
T1 sequence (Q99572 whole entry): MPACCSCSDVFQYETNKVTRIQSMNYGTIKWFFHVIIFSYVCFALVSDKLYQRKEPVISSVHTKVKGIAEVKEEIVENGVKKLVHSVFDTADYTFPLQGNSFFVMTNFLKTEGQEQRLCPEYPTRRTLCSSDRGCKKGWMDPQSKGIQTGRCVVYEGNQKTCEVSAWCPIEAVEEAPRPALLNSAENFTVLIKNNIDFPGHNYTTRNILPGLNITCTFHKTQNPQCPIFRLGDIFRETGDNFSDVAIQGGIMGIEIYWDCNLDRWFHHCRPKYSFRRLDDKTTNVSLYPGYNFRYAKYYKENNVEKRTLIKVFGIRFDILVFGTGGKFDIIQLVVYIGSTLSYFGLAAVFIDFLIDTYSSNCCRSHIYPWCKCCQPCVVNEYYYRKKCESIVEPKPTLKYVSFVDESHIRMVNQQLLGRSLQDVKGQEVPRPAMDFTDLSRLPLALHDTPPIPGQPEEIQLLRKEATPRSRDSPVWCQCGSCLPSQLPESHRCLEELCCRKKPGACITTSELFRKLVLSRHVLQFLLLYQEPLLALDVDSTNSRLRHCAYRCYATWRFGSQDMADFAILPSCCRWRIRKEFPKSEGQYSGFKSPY
In words: Antagonist activity at human P2X7 receptor expressed in human U373 cells assessed as inhibition of BzATP-induced Yo-Pro uptake. The test is classed as functional, cell-based, U-373MG ATCC.
Details: not given
As for `Cc1ccccc1CCC1=N[C@H](c2ccccc2)[C@H](c2ccccc2)N1`, the half-inhibitory concentration (IC50) was 63.1 nM. On to `c1ccc(C2=N[C@@H](c3ccccc3)[C@@H](c3ccccc3)N2)cc1`, for which the half-inhibitory concentration (IC50) was 3980 nM. In the case of `C[C@@]1(c2cccc(F)c2)N=C(NCc2cccc(F)c2)N[C@@H]1c1cccc(F)c1`, the 50% inhibitory concentration (IC50) was 39.8 nM.

Turning to `Fc1ccc(CC2=N[C@H](c3ccccc3)[C@H](c3ccccc3)N2)cc1`, the half-maximal inhibitory concentration (IC50) is 79.4 nM. Take `CC(C)(CC1=N[C@H](c2ccccc2)[C@H](c2ccccc2)N1)c1ccccc1`: the IC50 is 10 nM. Same read-out and setting: in the case of `Cc1ccccc1CC1=N[C@H](c2ccccc2)[C@H](c2ccccc2)N1` it was 316 nM. Regarding `CC(CC1=N[C@H](c2ccccc2)[C@H](c2ccccc2)N1)c1ccccc1` (stereo not given in full), the IC50 is 31.6 nM.

A further test addresses T1, P2X purinoceptor 7. The test is described as follows: Antagonist activity at P2X7 receptor in human THP1 cells assessed as inhibition of BzATP-induced ethidium uptake. The test is classed as functional, cell-based, THP-1.
Details: not given
In the case of `O=C(NCC12CC3CC(CC(C3)C1)C2)c1cc(-n2ncc(=O)[nH]c2=O)ccc1Cl`, the IC50 was 50.1 nM. Regarding `COC(=O)NC(CCc1ccncc1)COc1ccc(-c2cccc([N+](=O)[O-])c2)cc1` (stereo not given), the 50% inhibitory concentration (IC50) is over 10000 nM. Regarding `CCCCC(CC)CNC(=O)c1cc(-n2ncc(=O)[nH]c2=O)ccc1Cl` (stereo not given), the concentration for half-maximal inhibition (IC50) was 794 nM. On to `CCS(=O)(=O)N1CCc2c(ccc(C)c2NC(=O)Cc2ccc(C(F)(F)F)c(F)c2)C1`, for which the IC50 was 25.1 nM. Regarding `O=C(CC12CC3CC(CC(C3)C1)C2)Nc1cccc2nc(NCCCO)ccc12`, the IC50 was 7.94 nM. Take `O=C(CC12CC3CC(CC(C3)C1)C2)Nc1c(Cl)ccc2nc(CN3CCN(CCO)CC3)ccc12`: the IC50 is 20 nM. As to `Cc1ccc2c(NC(=O)C[C@H](C)c3ccccc3)c(Cl)ccc2n1`, the IC50 is 316 nM. As for `CC(=O)NC(CCc1ccncc1)COc1ccc(-c2cccc([N+](=O)[O-])c2)cc1` (stereo not given), the concentration for half-maximal inhibition (IC50) was over 10000 nM. Turning to `CNC[C@@H](O)Cc1ccc(Cl)c(C(=O)NCC23CC4CC(CC(C4)C2)C3)c1`, the 50% inhibitory concentration (IC50) is 10 nM. On to `O=C(NC12CC3CC(CC(C3)C1)C2)c1ccccc1Cl`, for which the IC50 is over 10000 nM. As to `O=C(NCC12CC3CC(CC(C3)C1)C2)c1ccc(Cl)cc1`, the IC50 is over 10000 nM. In the case of `O=C(NCC1(O)CCCCC1)c1cc(-n2ncc(=O)[nH]c2=O)ccc1Cl`, the IC50 is 398 nM. The same measure, in the same setting: for `O=C(Cc1ccc(F)c(C(F)(F)F)c1)Nc1cccc2c(=O)n([C@@H]3CNC[C@H]3O)ccc12` the value was 2.51 nM; for `O=C(CC1CCCCCC1)Nc1cccc2c(=O)n([C@H]3CCNC3)ccc12`, 3.16 nM; for `COC(=O)N(C)C(CCc1ccncc1)COc1ccc(-c2cccc([N+](=O)[O-])c2)cc1` (stereo not given), over 10000 nM. On to `O=C(Cc1cccc(C(F)(F)F)c1F)Nc1c(Cl)ccc2c(=O)n(C3CC3)ccc12`, for which the IC50 was 0.316 nM. For `CS(=O)(=O)NC(=O)NCCCc1ccc2c(C(=O)NCC3CCCCC3)c(Cl)ccc2n1`, the IC50 is 501 nM. For the molecule `Cc1ccc2nc(CCNCCCO)ccc2c1NC(=O)CC12CC3CC(CC(C3)C1)C2`, the IC50 is 15.8 nM.

Consider `C[C@@H](C(N)=O)n1ccc2c(NC(=O)CC34CC5CC(CC(C5)C3)C4)c(Cl)ccc2c1=O`, for which the half-maximal inhibitory concentration (IC50) was 0.0794 nM. On to `O=C(CC1CCCCC1)Nc1c(Cl)ccc2nc(NCCCO)ccc12`, for which the IC50 was 25.1 nM.

With `CC(C)C(CO)n1ccc2c(NC(=O)CC34CC5CC(CC(C5)C3)C4)cccc2c1=O` (stereo not given), the IC50 was 0.0501 nM. Regarding `O=C(Cc1ccc(C(F)(F)F)c(F)c1)Nc1cccc2c1CCN(C(=O)[C@H]1CCCN1)C2`, the IC50 was 79.4 nM.

As to `Clc1cccc(-c2nnnn2Cc2c(Cl)cccc2Cl)c1Cl`, the half-maximal inhibitory concentration (IC50) was 126 nM. As to `CN(CCO)CCc1cc(C(=O)NCC23CC4CC(CC(C4)C2)C3)c(Cl)cn1`, the concentration for half-maximal inhibition (IC50) is 15.8 nM.

Staying with this test, now noted: read-out: pA2 (converted).
Consider `COc1ccc(Cl)c(C(=O)NCC23CC4CC(CC(C4)C2)C3)c1`, for which the Kb is 1.58 nM.

For the molecule `Cc1ccccc1NC(=O)CC12CC3CC(CC(C3)C1)C2`, the Kb was 158 nM.

Staying with this test, now noted: thp-1.
Take `O=C(NCC12CC3CC(CC(C3)C1)C2)c1cc(N2CCNCC2)ncc1Cl`: the pIC50 is reported as over 5. As for `O=C(CNc1ccc(F)c(F)c1)Nc1cc(OC2CCNCC2)ccc1Cl`, the pIC50 is given as over 4.5. The same measure, in the same setting: for `O=C(NCC12CC3CC(CC(C3)C1)C2)c1cc(OC2CCNCC2)ncc1Cl` the value was over 5. Consider `CC(CO)NC(=O)c1cnc(N2CCC(N3C(=O)OCc4ccccc43)CC2)nc1C(F)(F)F` (stereo not given), for which the negative-log IC50 (pIC50) result is given as “>= 4.5”. Still for that read-out and setting: in the case of `O=C(NCC12CC3CC(CC(C3)C1)C2)c1cc(CCCNCCc2cnc[nH]2)ccc1Cl` it was over 5. Take `O=C(NCC12CC3CC(CC(C3)C1)C2)c1cc(OCCCNCCCO)ccc1Cl`: the negative logarithm of the IC50 (pIC50) was over 5.

As to `O=C(NCC12CC3CC(CC(C3)C1)C2)c1ccnc(N2CCNCC2)c1Cl`, the pIC50 is recorded as over 5. Regarding `CC(C)NC(=O)c1cnc(N2CCC(N3C(=O)OCc4ccccc43)CC2)c(Cl)c1`, the pIC50 result is “>= 4.5”. For `Cc1cccc(C)c1NC(=O)CN1CC2CCC(C1)N2c1ncnc2sccc12`, the pIC50 result was “>= 5”. Take `O=C(O)CNCCNc1ccc(Cl)c(C(=O)NCC23CC4CC(CC(C4)C2)C3)c1`: the pIC50 was over 5. `O=C(NCC12CC3CC(CC(C3)C1)C2)c1ccnc(NCC2CCNCC2)c1Cl`: the pIC50 is over 5. `NC1CCN(c2nccc(C(=O)NCC34CC5CC(CC(C5)C3)C4)c2Cl)CC1`: the pIC50 is given as over 5. Still for that read-out and setting: in the case of `C[C@@H]1CN(CC(=O)Nc2cccc3ncccc23)CCN1S(=O)(=O)c1ccc(S(C)(=O)=O)cc1` it was “>= 5”; in that of `CN(C(=O)c1ccc(N2CCC(N3C(=O)OCc4ccccc43)CC2)c([N+](=O)[O-])c1)C1CCCCC1`, “>= 4.5”.

A further test concerns the target T2, P2X purinoceptor 7 (Homo sapiens) (UniProt Q99572).
T2 sequence (whole entry): T1 sequence (Q99572 whole entry)
Conditions: HEK293, at 3 µM.
In the case of `CC(C)(C)OC(=O)N1CCN(C(=O)[C@H](Cc2ccc(OS(=O)(=O)c3cccc4cccnc34)cc2)NC(=O)OCc2ccccc2)CC1`, the inhibition worked out at 53%. `CCOC(=O)Oc1ccc(C[C@H](NC(=O)OCc2ccccc2)C(=O)N2CCN(C(=O)OC(C)(C)C)CC2)cc1` yielded an inhibition of under 10%.

The molecule `CC(C)(C)OC(=O)N1CCN(C(=O)[C@H](Cc2ccc(OS(=O)(=O)c3cccc4cccnc34)cc2)NS(=O)(=O)c2cccc3cccnc23)CC1` had an inhibition of 61%. Same read-out and setting: for `CC(C)(C)OC(=O)N1CCN(C(=O)[C@H](Cc2ccc(OS(=O)(=O)c3cccc4cccnc34)cc2)NC(=O)c2ccccc2)CC1` the value was 13%; for `CC(C)(C)OC(=O)N1CCN(C(=O)[C@H](Cc2ccc(OS(=O)(=O)c3ccccc3)cc2)NC(=O)OCc2ccccc2)CC1`, 59%. `CCC(=O)Oc1ccc(C[C@H](NC(=O)OCc2ccccc2)C(=O)N2CCN(C(=O)OC(C)(C)C)CC2)cc1` showed an inhibition of under 10%. As to `O=C(N[C@@H](Cc1ccc(OS(=O)(=O)c2ccccc2)cc1)C(=O)N1CCN(C(=O)c2ccccc2)CC1)OCc1ccccc1`, the inhibition is 78%. Same read-out and setting: in the case of `CC(C)(C)OC(=O)N1CCN(C(=O)[C@H](Cc2ccc(OS(=O)(=O)c3cccc4cccnc34)cc2)NS(C)(=O)=O)CC1` it was under 10%; in that of `CC(C)(C)OC(=O)N1CCN(C(=O)[C@H](Cc2ccc(OS(C)(=O)=O)cc2)NC(=O)OCc2ccccc2)CC1`, under 10%; in that of `CC(C)(C)OC(=O)N1CCN(C(=O)[C@H](Cc2ccc(OS(=O)(=O)c3cccc4cnccc34)cc2)NC(=O)OCc2ccccc2)CC1`, 43%.

Take `CC(C)(C)OC(=O)N1CCN(C(=O)[C@H](Cc2ccc(OS(=O)(=O)c3cccc4cccnc34)cc2)NS(=O)(=O)c2cccc3cnccc23)CC1`: the inhibition worked out at 37%. In turn, `CC(C)(C)OC(=O)N1CCN(C(=O)[C@@H](N)Cc2ccc(OS(=O)(=O)c3cccc4cccnc34)cc2)CC1` gave an inhibition of under 10%.

`CC(C)(C)OC(=O)N1CCN(C(=O)[C@H](Cc2ccc(OS(=O)(=O)c3cccc4cccnc34)cc2)NS(=O)(=O)c2ccccc2)CC1` registered an inhibition of under 10%.

In the case of `CCOC(=O)N[C@@H](Cc1ccc(OS(=O)(=O)c2cccc3cccnc23)cc1)C(=O)N1CCN(C(=O)OC(C)(C)C)CC1`, the inhibition is under 10%.

For the molecule `CC(C)(C)OC(=O)N1CCN(C(=O)[C@H](Cc2ccc(OC(=O)c3ccccc3)cc2)NC(=O)OCc2ccccc2)CC1`, the inhibition was found to be 47%. `Cc1ccc(S(=O)(=O)N[C@@H](Cc2ccc(OS(=O)(=O)c3cccc4cccnc34)cc2)C(=O)N2CCN(C(=O)OC(C)(C)C)CC2)cc1` returned an inhibition of 32%. As to `CCC(=O)N1CCN(C(=O)[C@H](Cc2ccc(OS(=O)(=O)c3ccccc3)cc2)NC(=O)OCc2ccccc2)CC1`, the inhibition is under 10%. For the molecule `O=C(N[C@@H](Cc1ccc(OS(=O)(=O)c2ccccc2)cc1)C(=O)N1CCN(C(=O)OCc2ccccc2)CC1)OCc1ccccc1`, the inhibition was 48%. As to `Cc1ccc(S(=O)(=O)Oc2ccc(C[C@H](NC(=O)OCc3ccccc3)C(=O)N3CCN(C(=O)OC(C)(C)C)CC3)cc2)cc1`, the inhibition is 71%.

The molecule `COc1ccc(S(=O)(=O)Oc2ccc(C[C@H](NC(=O)OCc3ccccc3)C(=O)N3CCN(C(=O)OC(C)(C)C)CC3)cc2)cc1` yielded an inhibition of 62%. In turn, `O=C(N[C@@H](Cc1ccc(OS(=O)(=O)c2ccccc2)cc1)C(=O)N1CCN(S(=O)(=O)c2ccccc2)CC1)OCc1ccccc1` yielded an inhibition of under 10%. Same read-out and setting: in the case of `CC(C)(C)OC(=O)N1CCN(C(=O)[C@H](Cc2ccc(OC(=O)OCc3ccccc3)cc2)NC(=O)OCc2ccccc2)CC1` it was under 10%; in that of `CC(C)(C)OC(=O)N1CCN(C(=O)[C@H](Cc2ccc(O)cc2)NC(=O)OCc2ccccc2)CC1`, under 10%.
